Several values for one entry are separate records, joined by “and”; a condition that tells them apart may be missing. Identical values can stand only once. Entries after “also recorded” stand apart in the source; their conditions may differ.
Assays:
Format in all cases: physicochemical
[1] = Absorbance spectra of the dyes in DCM (UV-Visible/NIR spectrophotometer); conditions: dichloromethane; for absorption (DCM) λmax: in example paragraphs the longest-wavelength absorbance peak; for absorption (DCM) ε: at absorption λmax
Text: (§1) The absorbance spectra in FIG. 2 and FIG. 5 were obtained in DCM on a JASCO V-770 UV-Visible/[…] spectrophotometer with a 2000 nm/min or 4000 nm/min scan rate. Plotted are the baseline corrected and normalized data. The emission spectra in FIG. 2 were taken in DCM on either a Horiba Instruments PTI QuantaMaster Series fluorometer (6), a Fluoromax-3 spectrofluorometer (1, 3-5), or home-built InGaAs array detector (Princeton Instruments). For 6 the following parameters were used: ex. 610 nm, emission collected from 620-900 nm, slits 5 nm, step size 1 nm, integration time 1 s. Plotted is the DCM corrected, baseline corrected, normalized data. For 1, and 3-5, the following parameters were used: slits 5 nm, step size 1 nm, integration time, 0.25 s. Excitation values and emission collection were as follows: 1 (ex. 460, collection 470-800 nm), 5 (ex. 675 nm, collection 685-950 nm), 4 (ex. 840 nm, emission 850-1100 nm), 3 (ex. 730 nm, emission 950-1400). Plotted are the baseline corrected, normalized data. The emission spectra in FIG. 5 were taken in dichloromethane on a Horiba Instruments QuantaMaster Series fluorometer with excitation slits: 15 nm, emission slits: 30 nm, step size: 1 nm, integration time: 0.1 s and excitation wavelengths as indicated.

[2] = Absolute fluorescence quantum yield using an integrating sphere; conditions: for QE, εΦF (quantum efficiency) / ΦF (fluorescence quantum yield): dichloromethane; for ΦF (fluorescence quantum yield): absolute value
Description: Polymethine dyes disclosed herein are characterized with respect to their photophysics including absorption, emission, extinction coefficient, quantum yields, and fluorescence lifetime. All quantum yields values obtained are absolute quantum yields values measured using an integrating sphere. Photostabilities are evaluated by sample irradiation with high powered LEDs. Additionally, solvatochromism, solvent compatibility, and stability are assessed.

[3] = Emission spectra of the dyes in DCM; conditions: dichloromethane; for emission (DCM) λmax: dyes 1, 3-6 and reference dyes; for Emission (CH2Cl2): Example 4 dyes, excitation 806-900 nm per dye
Text: as §1

[4] = Photobleaching under continuous-wave irradiation at 532 nm; conditions: dichloromethane; for relative rate, krel (photobleaching): 532 nm irradiation; for photostability (in words): 532 nm laser; for raw rate, k (photobleaching): continuous-wave irradiation 532 nm, 0.53 fluence
Description: Photostabilities of the Flay series were measured under continuous-wave irradiation (532 nm, 0.53 fluence).

SMILES | absorption (DCM) λmax [1] | emission (DCM) λmax [3] | absorption (DCM) ε [1] | Emission (CH2Cl2) [3] | other results
CN(C)c1ccc2c(c1)OC(c1ccccc1)=C/C2=C\c1cc(-c2ccccc2)[o+]c2cc(N(C)C)ccc12.O=C([O-])C(F)(F)F [Dye 6, (E)-7-(dimethylamino)-4-((7-(dimethylamino)-2-phenyl-4H-chromen-4-ylidene)methyl)-2-phenylchromenylium 2,2,2-trifluoroacetate] | 650 nm | 684 nm |  |  | QE, εΦF (quantum efficiency) [2]: 100 M⁻¹ cm⁻¹; ΦF (fluorescence quantum yield) ([2]; 2,2,2-trifluoroacetate): 0.7±0.5% and 0.7%; relative rate, krel (photobleaching) [4]: 4 ± 1; photostability (in words) ([4]; listed as Flav1, 2,2,2-trifluoroacetate): extremely high photostabilities; also recorded: excellent photostabilities; raw rate, k (photobleaching) [4]: 0.43 ± 0.01 s^−1 × 10^−3; ε at 532 nm [4]: 0.23 ± 0.08 M^−1cm^−1 × 10^4
ClC1=C(/C=C/c2cc(-c3ccccc3)[o+]c3c4c5c(cc23)CCCN5CCC4)CCC/C1=C\C=C1/C=C(c2ccccc2)Oc2c1cc1c3c2CCCN3CCC1.F[B-](F)(F)F [9-((E)-2-((E)-2-chloro-3-((E)-2-(11-phenyl-2,3,6,7-tetrahydro-1H,5H,9H-pyrano[2,3-f]pyrido[3,2,1-ij]quinolin-9-ylidene)ethylidene)cyclohex-1-en-1-yl)vinyl)-11-phenyl-2,3,6,7-tetrahydro-1H,5H-pyrano[2,3-f]pyrido[3,2,1-ij]quinolin-12-ium tetrafluoroborate] | 1061 nm |  | 2.38±0.07×10^5 M^−1cm^−1 | 1089 nm | 
CN(C)c1ccc2c(c1)OC(c1ccccc1)=C\C2=C/C=C/C=C/c1cc(-c2ccccc2)[o+]c2cc(N(C)C)ccc12.[O-][Cl+3]([O-])([O-])[O-] [Dye 4] | 862 nm | 908 nm |  |  | QE, εΦF (quantum efficiency) [2]: 10000 M⁻¹ cm⁻¹; QE, εΦF (quantum efficiency) ([2]; listed as Flav5): 10^3 M^−1cm^−1; Stoke's shift [3]: 46 nm; relative rate, krel (photobleaching) [4]: 4.0 ± 0.2; photostability (in words) ([4]; listed as Flav5): extremely high photostabilities; also recorded: excellent photostabilities; raw rate, k (photobleaching) [4]: 2.6 ± 0.2 s^−1 × 10^−3; ε at 532 nm [4]: 1.29 ± 0.08 M^−1cm^−1 × 10^4
ClC1=C(/C=C/c2cc(-c3ccccc3)[s+]c(-c3ccccc3)c2)CCC/C1=C/C=C1C=C(c2ccccc2)SC(c2ccccc2)=C1.F[B-](F)(F)F [IR-1061, reference compound] |  | 1081 nm |  |  | ΦF (fluorescence quantum yield) [2]: 0.32±0.04%
ClC1=C(/C=C/c2cc(-c3ccccc3)[o+]c3cc(N(c4ccccc4)c4ccccc4)ccc23)CCC/C1=C\C=C1/C=C(c2ccccc2)Oc2cc(N(c3ccccc3)c3ccccc3)ccc21.F[B-](F)(F)F [4-((E)-2-((E)-2-chloro-3-(2-((E)-7-(diphenylamino)-2-phenyl-4H-chromen-4-ylidene)ethylidene)cyclohex-1-en-1-yl)vinyl)-7-(diphenylamino)-2-phenylchromenylium tetrafluoroborate] | 1047 nm |  |  | 1079 nm | 
ClC1=C(/C=C/c2cc(-c3ccccc3)[o+]c3c2ccc2ccccc23)CCC/C1=C\C=C1/C=C(c2ccccc2)Oc2c1ccc1ccccc21.F[B-](F)(F)F [4-((E)-2-((E)-2-chloro-3-((E)-2-(2-phenyl-4H-benzochromen-4-ylidene)ethylidene)cyclohex-1-en-1-yl)vinyl)-2-phenylbenzo chromen-1-ium tetrafluoroborate] | 998 nm |  |  | 1024 nm | 
Cc1cc(-c2ccccc2)[o+]c2cc(N(C)C)ccc12 [Dye 1, 7-N,N-dimethylamino-4-methyl-flavylium perchlorate] | 510 nm | 587 nm | 17000 M⁻¹ cm⁻¹ |  | 
CN(C)c1ccc2c(c1)OC(c1ccccc1)=C/C2=C\C=C1/CCCC(/C=C/c2cc(-c3ccccc3)[o+]c3cc(N(C)C)ccc23)=C1Cl.F[B-](F)(F)F [4-((E)-2-((E)-2-chloro-3-(2-((E)-7-(dimethylamino)-2-phenyl-4H-chromen-4-ylidene)ethylidene)cyclohex-1-en-1-yl)vinyl)-7-(dimethylamino)-2-phenylchromenylium tetrafluoroborate] | 1026 nm |  |  | 1054 nm | 
C1=C(c2ccccc2)Oc2c(cc3c4c2CCCN4CCC3)/C1=C/C=C/C=C/c1cc(-c2ccccc2)[o+]c2c3c4c(cc12)CCCN4CCC3.F[B-](F)(F)F [11-phenyl-9-((1E,3E,5E)-5-(11-phenyl-2,3,6,7-tetrahydro-1H,5H,9H-pyrano[2,3-f]pyrido[3,2,1-ij]quinolin-9-ylidene)penta-1,3-dien-1-yl)-2,3,6,7-tetrahydro-1H,5H-pyrano[2,3-f]pyrido[3,2,1-ij]quinolin-12-ium tetrafluoroborate] | 897 nm |  | 2.5±0.1×10^5 M^−1cm^−1 | 934 nm | 
CCN(CC)c1ccc2c(c1)OC(c1ccccc1)=C/C2=C\C=C1/CCCC(/C=C/c2cc(-c3ccccc3)[o+]c3cc(N(CC)CC)ccc23)=C1Cl.F[B-](F)(F)F [4-((E)-2-((E)-2-chloro-3-(2-((E)-7-(diethylamino)-2-phenyl-4H-chromen-4-ylidene)ethylidene)cyclohex-1-en-1-yl)vinyl)-7-(diethylamino)-2-phenylchromenylium tetrafluoroborate] | 1034 nm |  | 1.8±0.2×10^5 M^−1cm^−1 | 1062 nm | 
ClC1=C(/C=C/c2cc(-c3ccccc3)[o+]c3ccc4ccccc4c23)CCC/C1=C\C=C1/C=C(c2ccccc2)Oc2ccc3ccccc3c21.F[B-](F)(F)F [1-((E)-2-((E)-2-chloro-3-((E)-2-(3-phenyl-1H-benzo[f]chromen-1-ylidene)ethylidene)cyclohex-1-en-1-yl)vinyl)-3-phenylbenzo[f]chromen-4-ium tetrafluoroborate] | 1014 nm |  |  | 1055 nm | 
CN1C(=CC=CC=CC=CC2=[N+](C)c3ccccc3C2(C)C)C(C)(C)c2ccccc21.[I-] [HITCI, 1,1′,3,3,3′,3′-hexamethylindotricarbocyanine iodide, reference compound] |  |  |  |  | ΦF relative to Flav3 [2]: ~10 fold
ClC1=C(/C=C/c2cc(-c3ccccc3)[o+]c3cc(N4CCC4)ccc23)CCC/C1=C\C=C1/C=C(c2ccccc2)Oc2cc(N3CCC3)ccc21.F[B-](F)(F)F [7-(azetidin-1-yl)-4-((E)-2-((E)-3-(2-((E)-7-(azetidin-1-yl)-2-phenyl-4H-chromen-4-ylidene)ethylidene)-2-chlorocyclohex-1-en-1-yl)vinyl)-2-phenylchromenylium tetrafluoroborate] | 1029 nm |  | 2.07±0.01×10^5 M^−1cm^−1 | 1059 nm | 
